Publication PMC4669759 (Cell Death & Disease, 2015)

How the values were obtained:
BCL-XL = BCL-XL (Homo sapiens, UniProt Q07817); experiment: TR-FRET binding affinity assay, BCL-XL
Description: TR-FRET-binding affinity assays were performed for BCL-2, BCL-XL, and MCL-1 in 4.52 mM monobasic potassium phosphate, 15.48 mM dibasic potassium phosphate, 1 mM sodium EDTA, 0.05% Pluronic F-68 detergent, 50 mM sodium chloride, and 1 mM DTT (pH 7.5) as described previously for BCL-XL.[6] For MCL-1 assays, GST-tagged MCL-1 (1 nM) was mixed with 100 nM f-Bak, 1 nM Tb-labeled anti-GST antibody, and compound at room temperature (RT) for 60 min. Fluorescence was measured on an Envision plate reader (Perkin-Elmer, Waltham, MA, USA) using a 340/35 nm excitation filter and 520/525 (f-Bak) and 495/510 nm (Tb-labeled anti-GST antibody) emission filters.

MCL-1–BIM complexes = molecular target: T1, MCL-1–BIM complexes (Homo sapiens, UniProt Q07820); experiment: MCL-1/BIM co-immunoprecipitation and immunoblot in H929 cells; type: cell-based; details: 10 μM, 4 h
T1 construct: endogenous in cells; host or cells: H929
T1 sequence (Q07820 whole entry, one chain of several): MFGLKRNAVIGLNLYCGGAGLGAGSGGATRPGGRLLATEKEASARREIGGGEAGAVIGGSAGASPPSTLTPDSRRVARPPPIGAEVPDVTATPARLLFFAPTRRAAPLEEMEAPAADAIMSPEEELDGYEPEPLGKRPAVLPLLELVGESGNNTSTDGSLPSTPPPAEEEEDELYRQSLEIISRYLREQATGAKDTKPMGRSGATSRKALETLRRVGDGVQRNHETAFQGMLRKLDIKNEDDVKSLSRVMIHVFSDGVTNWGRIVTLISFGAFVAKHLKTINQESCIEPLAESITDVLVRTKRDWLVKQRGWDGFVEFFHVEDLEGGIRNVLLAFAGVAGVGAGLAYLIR
Description: Figure 1 MCL-1 levels are elevated in cancer cells after treatment with MCL-1-binding small molecules. (a) H929 multiple myeloma cells were treated for 4 h with 10 μM A-1210477 before immunopreciptating MCL-1. […] A control H929 lysate was run in lane 1, and an immunoprecipitation with a non-specific antibody (Ig) was run in lane 2. The positions of molecular weight markers (specified in kiloDaltons) are indicated on the left. (b) HCC-1806 breast cancer cells were incubated with increasing concentrations of A-1210477 (0.1, 0.5, 1, 5, 10, 15, or 20 μM) or bortezomib (2, 10, or 50 nM) for 8 h before assessing MCL-1 and NOXA levels by immunoblotting. β-Actin was probed as a protein loading control. The lower graph depicts reverse transcriptase-PCR quantification of MCL1 mRNA from HCC-1806 cells treated for 8 h with similar concentrations of A-1210477. (c) HCC-1806 cells were incubated with increasing concentrations (0.1, 0.5, 1, 5, 10, and 20 μM) of A-954248, A-962653, or A-1248767 for 24 h before assessing MCL-1 and BCL-XL levels by immunoblotting. β-Actin was probed as a protein loading control
Antibodies for MCL-1-BIM co-immunoprecipitation studies were obtained from Thermo Fisher Scientific (Waltham, MA, USA; anti-MCL-1 clone RC13) and Abcam (Cambridge, MA, USA; anti-BIM clone Y36). […]

[1] = molecular target: T2, BCL-XL–BCL-XS interactions (Homo sapiens, UniProt Q07817); experiment: Mammalian two-hybrid assay, BCL-XL–BCL-XS, HeLa cells; type: cell-based; details: 24 h, luciferase two-hybrid
T2 construct: expressed in transfected cells; host or cells: HeLa cells stably expressing a GAL4-luciferase reporter
T2 sequence (Q07817 whole entry, the tested form may be a part): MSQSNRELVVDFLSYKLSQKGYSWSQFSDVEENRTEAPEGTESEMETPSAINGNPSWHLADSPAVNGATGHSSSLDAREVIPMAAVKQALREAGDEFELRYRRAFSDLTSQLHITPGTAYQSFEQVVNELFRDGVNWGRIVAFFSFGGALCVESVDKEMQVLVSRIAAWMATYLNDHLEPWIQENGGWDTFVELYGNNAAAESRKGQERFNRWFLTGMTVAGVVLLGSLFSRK
Description: (a) H929 cells were treated with increasing concentrations of A-1210477 for 4 h. […] All data represent the mean of triplicate experiments, with error bars indicating the S.D. (b) Quantitative measurement of protein–protein interactions using a luciferase-based mammalian two-hybrid assay. […] All data represent the means of triplicate experiments, with error bars indicating the S.Ds.
HeLa cells stably expressing a GAL4-luciferase reporter were seeded into 10 cm dishes at 5 × 10^5 cells per plate. In all, 24 μg of a plasmid expressing both the ‘bait' and ‘prey' fusion proteins (GAL4DBD-BIM and VP16AD-BCL-2, GAL4DBD-BCL-XL and VP16AD- BCL-XS, or GAL4DBD-MCL-1 and VP16AD-NOXA, respectively) were mixed with 1.5 ml OptiMEM (Invitrogen). Separately, 24 μl Lipofectamine 2000 (Invitrogen) were mixed with 1.5 ml OptiMEM. Both solutions were incubated for 5 min (RT) and then mixed together for 20 min. Three milliliters of the mixture was added to cells in 12 ml culture medium lacking antibiotics, incubated at 37 °C for 24 h, and then transferred to 96-well plates at 20 000 cells per well. Compounds were added in half-log dilutions, starting from 1 μM and ending at 0.0001 μM for 24 h, and luciferase activity was assessed using ONE-Glo reagent (Promega). All data were plotted as the percentage of complex remaining relative to untreated controls.

BxPC-3 cells = experiment: Navitoclax / A-1210477 combination cell viability, BxPC-3 cells; type: cell-based; details: BxPC-3, 48 h
Description: Figure 6 A-1210477 synergizes with navitoclax to kill hematological and solid tumor cell lines. BxPC-3, EJ-1, H23, and OPM-2 cells were treated with increasing concentrations of navitoclax in the presence or absence of increasing concentrations of A-1210477 for 48 h before assessing cell viability. All data points represent the means of triplicate experiments, with error bars indicating the S.E.M. TEXT PRINTED IN THE PICTURE: A-1210477 + navitoclax: Bliss sum (BxPC-3): 716; Bliss sum (EJ-1): 464; Bliss sum (H23): 76; Bliss sum (OPM-2): 946 DOUBTS OF THE COPYIST ABOUT THIS PICTURE: The Bliss sums apply to the combination of A-1210477 and navitoclax. The picture prints the two names separately (legend heading and axis title), not as one joined label.
Adherent cell lines were seeded at 50 000 cells per well in 96-well plates and treated for 48 h with compounds diluted in half-log steps starting at 30 μM and ending at 0.001 μM. Multiple myeloma cell lines were seeded at 15 000–20 000 cells per well and treated similarly. Effects on proliferation and viability were determined using CellTiter-Glo reagent from Promega (Madison, WI, USA) according to the manufacturer's instructions. IC50 values were determined by non-linear regression analysis of the concentration response data.

[2] = design: method as in PMID 25679114; details: cited from earlier work
MCL-1 = MCL-1 (Homo sapiens, UniProt Q07820); design: endogenous in cells; host or cells: HCC-1806; method as in PMID 25679114; details: in the presence of 10% human serum; cited from earlier work
MCL-1, sequence (Q07820 whole entry): as the sequence (Q07820 whole entry, one chain of several) above

BCL-XL, sequence (Q07817 whole entry): as the sequence (Q07817 whole entry, the tested form may be a part) above

With `Cc1nn(C)c(COc2ccc(N3CCN(S(=O)(=O)N(C)C)CC3)cc2)c1-c1cccc2c(CCCOc3cccc4ccccc34)c(C(=O)O)n(CCN3CCOCC3)c12` [A-1210477] the Ki (BCL-XL) was greater than 660 nM, the “BIM co-immunoprecipitated with MCL-1 antibody” value (MCL-1–BIM complexes) was “reduce the amount of BIM co-immunoprecipitated” and the “effect on BCL-XL–BCL-XS interactions” value [1] was “no effect”. The potentiation of navitoclax (BxPC-3 cells) was “substantially shifted the dose–response curve of navitoclax”, the human protein binding [2] was greater than 99% and the “shift in MCL-1 affinity” value (MCL-1) was greater than 15 fold.
